The test system of data set [1] is chick chorioallantoic membrane (CAM). Briefly: Chick chorioallantoic membrane (CAM) assay, CAM area. Particulars: for LOAEL / LOAEL (Molar) / NOAEL (Molar) / LOAEL (mg/ml): day 5-6 CAMs, 24 hours; for minimal effective concentration: Gallus gallus, 24 h, read-out: lowest effective dose on CAM area; for effect on CAM area: 5e-11M. The method, then:
The chick chorioallantoic membrane (CAM) assay is perhaps the most widely used assay for screening anti-angiogenic or growth inhibitory compounds (see, e.g. Ribatti et al., Int. J. Dev. Biol. 40:1189-1197 (1996)). Cell proliferation and angiogenesis were evaluated by measuring CAM area and BrdU labeling using the CAM assay as modified by Melkonian et al., J. Exp. Zool. (2001), in review. Fertilized chicken eggs were purchased from Hy-Line International (Lakeview, CA), then incubated at 37° C. at 85-90% relative humidity throughout the experiment. Experiments were done to evaluate cell proliferation, angiogenesis, and vascularization in CAMs between days 5 and 6 after fertilization. Albumin (2.5-3.0 cc) was removed on the fourth day after fertilization to drop the embryo away from the shell. Windows were then made in shells, and sealed with transparent tape to allow subsequent access to the CAM for experimental treatment. 200 μl of either EBSS-H or different concentrations of pure chemicals were added to the surface of each CAM at 10 AM on the fifth day after fertilization. A sham control group in which the window was opened and resealed was also included in each experiment. In all cases, the following five concentrations of test reagents were used, 5×10^−3 M, 5×10^−5 M, 5×10^−7M, 5×10^−9 M and 5×10^−11M. For 2-ethylpyridine and 3-ethylpyridine additional concentrations of 5×10^−12M, 5×10^−13M, 5×10^−14 M and 5×10^−15 M were used. For nicotine and nornicotine, concentrations of 5×10^−4 M, 5×10^−6 M, 5×10^−8 M and 5×10^−10 M were also used. Development was terminated at 10 AM on the sixth day after fertilization by fixing the embryo and the CAM with 3% glutaraldehyde in 0.1M cacodylate buffer (pH 7.4) for 2 hours at room temperature. A small volume of fixative was also injected under the CAM. The CAMs were later dissected from eggs, post-fixed in the same fixative for 24 hours at room temperature, then thoroughly rinsed in PBS.
At least 6 CAMs were used in each control and experimental group. Parameters which measure aspects of cell proliferation, angiogenesis, and vacularization were quantified for each CAM. These parameters include: (1) for cell proliferation—CAM area, BrdU labeling of nuclei; (2) for angiogenesis—blood vessel pattern, blood vessel area, blood vessel diameter, and blood vessel branching; (3) for vascularization—density of angiogenic clusters. The area of each CAM was measured by placing the CAMs in PBS in a Petri dish under a Wild-M5A dissecting microscope (Max ERB instrument Co., Burbank, CA), then measuring the longest and shortest length of each CAM with a ruler to the precision of 0.5 mm. The data were recorded into Excel spreadsheet. CAM area was calculated using the formula:
where A=longest length, B=longest width, π=3.14.
Means and standard deviations were then calculated for each control and treatment group. The treated group means were used to compare with control means to determine the effect of each chemical on CAM growth.
On the fifth day after fertilization, either EBSS-H or different concentrations of test chemicals were added to each CAM. A sham group in which windows were opened and resealed without adding any solution was also included to determine if the vehicle EBSS-H had any effect on CAM area. Development was terminated 24 hours later, and CAMs were measured as described in Materials and Methods.

In a further data set the test system is nuclei of day 5 CAMs. The data set can be described thus: BrdU labeling of CAMs (cell proliferation). It counts as in vivo, chick. The method, then:
Eight hours after the initial EBSS-H or chemical treatment on day 5 after fertilization, […] BrdU (Sigma, St. Louis, Mo.) were added to each CAM surface. Another 55 minutes after the BrdU treatment, the development of the CAMs was terminated by transferring the embryos and CAMs into a −20° C. freezer for 2-3 minutes. Embryos and CAMs were then fixed at −20° C. in 70% ethanol containing 50 mM glycine buffer, pH 2.0 for 1.5 hours. CAMs were then dissected out of the eggs, washed in PBS and dehydrated in 30%, 50%, 75%, 90% and 100% ethanol series. Dehydrated CAM tissues were further processed in Hypercenter II Tissue Processing System (Shandon Inc., Pittsburgh, Pa.), then embedded in paraffin using Sakura Tissue-TE (Shandon Inc., Pittsburgh, Pa.). Paraffin Sections were cut using a S20 Spencer microtome (Labequip, American Optical Corp., Ontario, Canada), and were mounted on Superfrost/plus glass slides (Fisher Scientific, Tustin, CA). Sections were deparaffinized with 3 changes of Hemo-De for 15 minutes each, 2 changes of 100% ethanol for 5 minutes each, then rehydrated in PBS. […] Images were recorded using a Spot digital camera-SP401-115 (Diagnostic Instruments, Sterling Heights, MI) and processed and montaged using Adobe Photoshop (San Jose, Calif.). […]
A general note: Dividing cells build labelled thymidine or BrdU into new DNA.

Data set [2] relates to blood vessels of the chick chorioallantoic membrane (CAM). The data set can be described thus: CAM angiogenesis: blood vessel area, pattern formation, capillary plexus. The format is in vivo. The method, then: (2001), in review. […] The surface of each CAM was further dissected out of the CAM pocket in PBS. CAMs were then flattened with 18×18-1.5 Fisherbrand microscope cover slip (Fisher Scientific, Pittsburgh, Pa.) in Fisherbrand 60×15 mm standard sterile polystyrene petri dish (Fisher Scientific, Pittsburgh, Pa.). […] Pattern formation was evaluated blindly using video image montages projected on a computer monitor. Images were ranked on a scale of 0 to 3, with 0 being similar to control CAMs and 3 being most dissimilar from controls. The area occupied by major blood vessels in control and chemically treated CAMs was measured in digitalized images projected on a computer monitor using NIH image. Boxes (2.4 c 1.98 mm) were placed in each corner of each CAM image, which had been processed to visualize the major blood vessels. The percentage of pixels occupied by the blood vessels was quantified in each box and an average percentage was computed from the four boxes measured from each CAM. These values were used to compute means and standard deviations for each group. Blood vessel diameter and branching were measured in images projected on a computer monitor using NIH Image software. Density of angiogenic clusters was evaluated in toluidine blue stained histological sections that were digitalized and projected on a computer monitor.

From US20030064989A1, “Inhibitors of cell proliferation, angiogenesis, fertility, and muscle contraction” (priority 2001, published 2003) come the findings set out here.

The term LOAEL denotes the lowest tested level that showed an adverse finding.

Where “and” joins values, the source holds several entries; their conditions need not be identical. Equal values may be shown once. Entries after “also recorded” stand apart in the source; their conditions may differ.

Turning to `Cc1cccnc1C` [2,3-dimethylpyridine], in data set [1] (CAM area), the “LOAEL” value stood at 0.00536 mg/mL, the “LOAEL (Molar)” value stood at 50 µM and the “NOAEL (Molar)” value turned out to be 500 nM. Moreover, the minimal effective concentration in data set [1] was 50 µM and 5.36 µg/mL.
With `Cc1cc(C)nc(C)c1` [2,4,6-trimethylpyridine], in data set [1] (CAM area), the “LOAEL” value was 0.0061 mg/mL, the “LOAEL (Molar)” value came out at 50 µM and the “NOAEL (Molar)” value was 500 nM. The minimal effective concentration in data set [1] was 50 µM and 6.1 µg/mL.
As to `Cc1ccnc(C)c1` [2,4-dimethylpyridine], in data set [1] (CAM area), the “LOAEL” value is 0.00536 mg/mL, the “LOAEL (Molar)” value amounted to 50 µM and the “NOAEL (Molar)” value turned out to be 500 nM. In addition, the minimal effective concentration in data set [1] was 50 µM and 5.36 µg/mL.
As to `CCc1ccccn1` [2-ethylpyridine], in data set [1] (5e-3M), the “CAM size compared with control groups” value is recorded as “significantly smaller”. In data set [1] (CAM area), the “lowest effective dose lower than that of the single pyridine ring” value worked out at 10 million, the “LOAEL” value worked out at 5.36e-10 mg/mL, the “LOAEL (Molar)” value worked out at 5e-06 µM and the “NOAEL (Molar)” value turned out to be 0.0005 nM. Further, in data set [1], the minimal effective concentration is 5e-06 µM and 5.4e-07 µg/mL. Moreover, the “CAM growth / size compared with control” value in data set [1] (dose not stated) is reported as “significantly inhibited”. In addition, the “incorporation of BrdU into nuclei” value in the data set on nuclei of day 5 CAMs (5e-11, eight hours) is given as “significantly less incorporation of BrdU”. In addition, the “major blood vessel pattern formation” value in data set [2] (5e-3M) was “disturbance in major blood vessel pattern formation”. In data set [2] (all doses tested), the dendritic branching pattern entry is listed as “disrupted”. The “formation of the capillary plexus” value in data set [2] (in vivo) is given as “significantly inhibited; also recorded: failed to form”. Besides, the “dose at which blood vessel area was significantly decreased” value in data set [2] (vs EBSS control, exposed day 5, evaluated day 6) was 50 pM.
`Cc1ccccn1` [2-methylpyridine]: in data set [1] (CAM area), the “LOAEL (Molar)” value came out at 0.005 µM, the “LOAEL (mg/ml)” value turned out to be 4.66e−7 mg/lml mg/ml and the “NOAEL (Molar)” value was 0.05 nM. The minimal effective concentration in data set [1] is 0.005 µM and 0.000466 µg/mL. The “incorporation of BrdU into nuclei” value in the data set with nuclei of day 5 CAMs (5e-9, eight hours) was “significantly less incorporation of BrdU”.
Turning to `Cc1cccnc1` [3-methylpyridine], in data set [1] (CAM area), the “LOAEL (Molar)” value is 0.005 µM, the “LOAEL (mg/ml)” value was 4.66e−7 mg/lml mg/ml and the “NOAEL (Molar)” value came to 0.05 nM. The minimal effective concentration in data set [1] is 0.005 µM and 0.000466 µg/mL.
Consider `c1cc(-c2ccncc2)ccn1` [4,4-bipyridine], for which, in data set [1] (CAM area), the lowest observed adverse effect level (LOAEL) amounted to 0.0781 mg/mL, the “LOAEL (Molar)” value is 500 µM and the “NOAEL (Molar)” value came to 50000 nM. Also, the minimal effective concentration in data set [1] is 500 µM and 78.1 µg/mL.
Consider `C=Cc1ccncc1` [4-ethenylpyridine], for which, in data set [1] (CAM area), the “LOAEL” value amounted to 0.00526 mg/mL, the “LOAEL (Molar)” value was found to be 50 µM and the “NOAEL (Molar)” value came out at 500 nM. In addition, in data set [1], the minimal effective concentration was 50 µM and 5.26 µg/mL.
Turning to `c1ccncc1` [Pyridine, pyridine, reference compound], in data set [1] (CAM area), the “LOAEL” value is 0.00396 mg/mL, the “LOAEL (Molar)” value turned out to be 50 µM and the “NOAEL (Molar)” value is 500 nM. Moreover, in data set [1], the minimal effective concentration is 50 µM and 3.96 µg/mL.
In the case of `Cn1cccc1-c1cccnc1` [b-nicotyrine, 3-(1-methylpyrrol-2-yl)pyridine], in data set [1], the “effect on CAM area” value is reported as “slight increase”; the minimal effective concentration was 0.5 µM and 0.079 µg/mL. In data set [1] (CAM area), the “LOAEL” value came out at 7.9e-05 mg/mL, the “LOAEL (Molar)” value came to 0.5 µM and the “NOAEL (Molar)” value was determined as 5 nM.
Turning to `CN1CCCC1c1cccnc1` (stereo not drawn) [nicotine, 1-methyl-2-(3-pyridyl)pyrrolidine], in data set [1], the “effect on CAM area” value was “significant stimulatory effect”; the minimal effective concentration was 500 µM and 81 µg/mL. In data set [1] (CAM area), the “LOAEL” value is 0.081 mg/mL, the “LOAEL (Molar)” value was determined as 500 µM and the “NOAEL (Molar)” value was 50000 nM.
With `c1cncc([C@@H]2CCCN2)c1` [nornicotine, 3-(1-pyrrolidin-2-yl)pyridine], in data set [1], the “effect on CAM area” value is “significant stimulatory effect”; the minimal effective concentration was 50 µM and 7.4 µg/mL. In data set [1] (CAM area), the lowest-observed-adverse-effect level (LOAEL) stood at 0.0074 mg/mL, the “LOAEL (Molar)” value came out at 50 µM and the “NOAEL (Molar)” value came out at 5000 nM.
